The text below walks through data of PMC9030254, “Target Hopping from Protein Kinases to PXR: Identification of Small-Molecule Protein Kinase Inhibitors as Selective Modulators of Pregnane X Receptor from TüKIC Library” (Cells, 2022).

Molecules are shown by their SMILES. Bounds are passed on as bounds.

In general, inhibition refers to the drop in the measured response relative to a control, in per cent. Low readings indicate a weak effect, high ones a strong effect.

Assay in all cases: Kinase profiling
Common to all, as to type: biochemical

In experiment [1] the target is T1, ACVR1B (Homo sapiens, UniProt P36896).
T1 construct: purchased ProQinase (Freiburg, Germany)
T1 sequence (P36896 24-505): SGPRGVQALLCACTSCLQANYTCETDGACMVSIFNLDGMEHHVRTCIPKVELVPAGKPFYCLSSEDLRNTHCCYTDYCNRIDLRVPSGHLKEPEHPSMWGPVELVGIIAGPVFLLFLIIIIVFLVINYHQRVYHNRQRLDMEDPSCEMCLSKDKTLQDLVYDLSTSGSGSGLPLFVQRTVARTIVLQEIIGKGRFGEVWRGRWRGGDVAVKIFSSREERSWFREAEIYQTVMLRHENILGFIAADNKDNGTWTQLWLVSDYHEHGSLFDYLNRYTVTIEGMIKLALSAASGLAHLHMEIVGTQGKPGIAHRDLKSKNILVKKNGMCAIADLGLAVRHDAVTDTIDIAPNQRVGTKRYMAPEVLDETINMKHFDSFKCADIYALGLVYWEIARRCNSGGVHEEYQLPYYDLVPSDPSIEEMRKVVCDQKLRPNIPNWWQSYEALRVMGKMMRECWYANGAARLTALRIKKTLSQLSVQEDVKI
How it is done: (§1) The analysis was performed by ProQinase (Freiburg, Germany).

Experiment [2] addresses T2, CAMK2B (Homo sapiens, UniProt Q13554).
T2 construct: purchased ProQinase (Freiburg, Germany)
On the procedure:
as §1

The target in experiment [3] is T3, CDK2/CycD1 (Homo sapiens, UniProt P24941).
T3 construct: purchased ProQinase (Freiburg, Germany)
On the procedure:
as §1

Experiment [4] deals with T4, CSK (Homo sapiens, UniProt P41240).
T4 construct: purchased ProQinase (Freiburg, Germany)
How it is done:
as §1

In experiment [5] the target is T5, EPHB3 (Homo sapiens, UniProt P54753).
T5 construct: purchased ProQinase (Freiburg, Germany)
T5 sequence (P54753 34-998): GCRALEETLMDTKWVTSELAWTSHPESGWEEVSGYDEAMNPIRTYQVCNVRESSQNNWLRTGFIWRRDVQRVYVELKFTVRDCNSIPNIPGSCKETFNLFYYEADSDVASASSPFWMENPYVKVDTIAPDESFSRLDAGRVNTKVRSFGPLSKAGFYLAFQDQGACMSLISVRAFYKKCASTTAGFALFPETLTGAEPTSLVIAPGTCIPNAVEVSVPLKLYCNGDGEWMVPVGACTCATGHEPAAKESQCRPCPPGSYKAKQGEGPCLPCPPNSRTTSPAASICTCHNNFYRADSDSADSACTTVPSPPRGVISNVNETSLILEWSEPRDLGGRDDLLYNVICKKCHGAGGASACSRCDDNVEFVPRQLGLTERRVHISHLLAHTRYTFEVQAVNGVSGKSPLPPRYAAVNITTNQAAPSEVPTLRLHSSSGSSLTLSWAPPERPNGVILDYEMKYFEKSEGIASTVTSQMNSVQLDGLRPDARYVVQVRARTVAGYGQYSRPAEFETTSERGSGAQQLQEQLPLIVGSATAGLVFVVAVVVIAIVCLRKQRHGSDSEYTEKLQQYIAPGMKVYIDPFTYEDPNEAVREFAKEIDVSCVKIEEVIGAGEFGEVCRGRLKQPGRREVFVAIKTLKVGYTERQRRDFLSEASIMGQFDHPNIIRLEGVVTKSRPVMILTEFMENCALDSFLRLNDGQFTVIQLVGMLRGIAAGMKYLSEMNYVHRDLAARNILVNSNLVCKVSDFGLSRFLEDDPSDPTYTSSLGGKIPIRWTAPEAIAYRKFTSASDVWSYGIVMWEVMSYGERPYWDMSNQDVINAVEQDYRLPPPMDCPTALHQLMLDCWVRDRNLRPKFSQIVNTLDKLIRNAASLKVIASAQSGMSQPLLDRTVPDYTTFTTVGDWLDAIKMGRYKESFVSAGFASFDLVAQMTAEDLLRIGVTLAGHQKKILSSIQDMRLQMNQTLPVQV
On the procedure:
as §1

In experiment [6] the target is T6, GRK4 (Homo sapiens, UniProt P32298).
T6 construct: purchased ProQinase (Freiburg, Germany)
On the procedure:
as §1

In experiment [7] the target is T7, MAPKAPK3 (Homo sapiens, UniProt Q16644).
T7 construct: purchased ProQinase (Freiburg, Germany)
How it is done:
as §1

In experiment [8] the target is T8, MATK (Homo sapiens, UniProt P42679).
T8 construct: purchased ProQinase (Freiburg, Germany)
T8 sequence (P42679 1-507): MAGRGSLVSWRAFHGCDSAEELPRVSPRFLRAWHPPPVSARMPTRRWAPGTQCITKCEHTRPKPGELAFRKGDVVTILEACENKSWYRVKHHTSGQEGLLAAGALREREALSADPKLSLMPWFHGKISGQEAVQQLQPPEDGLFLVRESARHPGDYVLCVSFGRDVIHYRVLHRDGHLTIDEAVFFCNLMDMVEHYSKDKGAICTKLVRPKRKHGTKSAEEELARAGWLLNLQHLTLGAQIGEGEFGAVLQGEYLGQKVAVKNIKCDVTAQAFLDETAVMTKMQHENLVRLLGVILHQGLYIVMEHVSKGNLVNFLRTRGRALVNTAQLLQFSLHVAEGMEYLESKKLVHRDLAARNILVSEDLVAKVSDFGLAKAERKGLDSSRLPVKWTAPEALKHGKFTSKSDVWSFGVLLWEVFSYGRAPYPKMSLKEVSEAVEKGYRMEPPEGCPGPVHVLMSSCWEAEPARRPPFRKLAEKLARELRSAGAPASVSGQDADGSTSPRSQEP
On the procedure:
as §1

T6 sequence (P32298 whole entry): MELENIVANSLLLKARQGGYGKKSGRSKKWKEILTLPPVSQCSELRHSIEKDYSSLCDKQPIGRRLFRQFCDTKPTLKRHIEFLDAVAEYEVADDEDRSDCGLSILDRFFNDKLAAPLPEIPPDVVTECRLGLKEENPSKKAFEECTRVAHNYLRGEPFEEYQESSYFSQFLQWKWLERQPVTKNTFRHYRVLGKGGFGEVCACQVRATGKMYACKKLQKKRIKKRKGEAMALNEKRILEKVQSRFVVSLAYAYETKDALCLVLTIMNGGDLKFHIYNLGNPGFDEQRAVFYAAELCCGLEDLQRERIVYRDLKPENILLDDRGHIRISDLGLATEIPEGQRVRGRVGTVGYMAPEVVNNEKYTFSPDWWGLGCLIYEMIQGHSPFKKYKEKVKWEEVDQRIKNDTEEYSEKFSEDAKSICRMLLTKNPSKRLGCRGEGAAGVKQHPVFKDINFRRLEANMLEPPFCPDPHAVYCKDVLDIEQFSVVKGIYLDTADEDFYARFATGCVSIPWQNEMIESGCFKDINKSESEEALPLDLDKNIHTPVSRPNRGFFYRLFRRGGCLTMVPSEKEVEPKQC
T7 sequence (Q16644 whole entry): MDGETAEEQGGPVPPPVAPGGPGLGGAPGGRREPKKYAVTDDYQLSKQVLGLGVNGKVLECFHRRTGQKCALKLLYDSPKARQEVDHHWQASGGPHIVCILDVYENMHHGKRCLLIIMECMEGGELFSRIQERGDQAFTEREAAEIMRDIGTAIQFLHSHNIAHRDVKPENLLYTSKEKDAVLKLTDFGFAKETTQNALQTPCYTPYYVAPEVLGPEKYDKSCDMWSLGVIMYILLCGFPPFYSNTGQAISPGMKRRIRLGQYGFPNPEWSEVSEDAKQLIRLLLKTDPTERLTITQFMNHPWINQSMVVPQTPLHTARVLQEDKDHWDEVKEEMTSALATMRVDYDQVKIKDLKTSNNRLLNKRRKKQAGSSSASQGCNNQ
T4 sequence (P41240 whole entry): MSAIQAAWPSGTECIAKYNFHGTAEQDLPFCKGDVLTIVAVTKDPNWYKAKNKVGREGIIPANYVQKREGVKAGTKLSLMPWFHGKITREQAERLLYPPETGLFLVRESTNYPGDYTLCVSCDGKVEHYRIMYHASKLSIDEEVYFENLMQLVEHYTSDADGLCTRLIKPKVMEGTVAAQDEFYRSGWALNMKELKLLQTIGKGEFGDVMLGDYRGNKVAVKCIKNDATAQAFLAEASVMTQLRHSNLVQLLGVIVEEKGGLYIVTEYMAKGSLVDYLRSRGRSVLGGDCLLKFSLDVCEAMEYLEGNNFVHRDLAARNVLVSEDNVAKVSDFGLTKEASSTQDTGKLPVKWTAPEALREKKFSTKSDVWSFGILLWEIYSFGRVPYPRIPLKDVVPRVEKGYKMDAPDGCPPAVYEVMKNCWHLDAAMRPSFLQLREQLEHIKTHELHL
T2 sequence (Q13554 whole entry): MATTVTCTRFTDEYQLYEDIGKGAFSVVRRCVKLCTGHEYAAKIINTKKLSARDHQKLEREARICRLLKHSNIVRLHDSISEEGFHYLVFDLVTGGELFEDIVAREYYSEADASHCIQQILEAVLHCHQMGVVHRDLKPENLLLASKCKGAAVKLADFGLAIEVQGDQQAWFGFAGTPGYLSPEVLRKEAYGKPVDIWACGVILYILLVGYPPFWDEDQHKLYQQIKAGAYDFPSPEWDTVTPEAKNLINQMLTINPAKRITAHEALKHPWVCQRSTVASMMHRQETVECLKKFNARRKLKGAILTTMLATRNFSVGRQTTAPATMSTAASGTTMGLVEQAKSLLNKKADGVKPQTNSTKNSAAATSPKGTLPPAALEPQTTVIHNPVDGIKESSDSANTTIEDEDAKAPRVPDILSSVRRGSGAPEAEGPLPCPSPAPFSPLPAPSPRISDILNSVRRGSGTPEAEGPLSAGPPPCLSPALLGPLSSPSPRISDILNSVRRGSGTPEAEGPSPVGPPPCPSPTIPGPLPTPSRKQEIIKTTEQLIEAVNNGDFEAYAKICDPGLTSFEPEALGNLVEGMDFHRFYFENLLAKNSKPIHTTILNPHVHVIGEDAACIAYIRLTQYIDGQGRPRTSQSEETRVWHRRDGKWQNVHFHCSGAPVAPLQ

Turning to `O=C(Nc1ccc(F)c(Nc2ccc3c(c2)CCCCC3=O)c1)c1cccc(F)c1` [Compound 109], the Residual activity in experiment [1] (1.0E-05 M) is 87 % of control; in experiment [1] (1.0E-06 M), 98 % of control; in experiment [2] (1.0E-05 M) it was 104 % of control; in experiment [2] (1.0E-06 M), 132 % of control; in experiment [3] (1.0E-05 M) it was 87 % of control; in experiment [3] (1.0E-06 M), 106 % of control. Further, the Residual activity in experiment [4] (1.0E-05 M) was 109 % of control; in experiment [4] (1.0E-06 M) it was 112 % of control; in experiment [5] (1.0E-05 M), 85 % of control; in experiment [5] (1.0E-06 M), 100 % of control; in experiment [6] (1.0E-05 M) it was 130 % of control; in experiment [6] (1.0E-06 M), 103 % of control. Further, the Residual activity in experiment [7] (1.0E-05 M) was 65 % of control; in experiment [7] (1.0E-06 M), 98 % of control; in experiment [8] (1.0E-05 M), 95 % of control; in experiment [8] (1.0E-06 M) it was 94 % of control.
For `O=C(Cc1ccccc1)Nc1ccc(F)c(Nc2ccc3c(c2)CCCCC3=O)c1` [Compound 100], the Residual activity in experiment [1] (1.0E-05 M) is 90 % of control; in experiment [1] (1.0E-06 M), 92 % of control; in experiment [2] (1.0E-05 M), 115 % of control; in experiment [2] (1.0E-06 M) it was 144 % of control; in experiment [3] (1.0E-05 M), 119 % of control; in experiment [3] (1.0E-06 M), 102 % of control. Further, the Residual activity in experiment [4] (1.0E-05 M) was 96 % of control; in experiment [4] (1.0E-06 M), 106 % of control; in experiment [5] (1.0E-05 M) it was 69 % of control; in experiment [5] (1.0E-06 M), 100 % of control; in experiment [6] (1.0E-05 M) it was 86 % of control; in experiment [6] (1.0E-06 M) it was 116 % of control. The Residual activity in experiment [7] (1.0E-05 M) was 50 % of control; in experiment [7] (1.0E-06 M) it was 109 % of control; in experiment [8] (1.0E-05 M), 86 % of control; in experiment [8] (1.0E-06 M) it was 101 % of control. This compound had an inhibition at 10 µM in experiment [7] (10 µM) of no less than 50%.
